This is an account of results in patent publication US20060018921A1, “Histone deacetylase inhibitors and cognitive applications” (priority 2004, published 2006).

Structures are written as SMILES. “Also recorded” adds a separate entry of the source.

Assay [1] in a line: Contextual fear conditioning, freezing behavior. Conditions: for spontaneous freezing behavior on re-exposure 24 h after mock training, no shock (FIG. 11D): sodium butyrate 1.2 g/kg vs saline; for spontaneous freezing behavior during mock training, no shock (FIG. 11C): sodium butyrate 1.2 g/kg, 3 min in training chamber.
Another assay relates to ERK2. Nature of the assay: P-ERK2 western blot of area CA1 after contextual fear conditioning. As to conditions: MK-801 300 μg/kg 1 h prior to training; SL327 100 mg/kg immediately after training.
Assay [2] deals with histone H3 (Lys14). Nature of the assay: Acetylation of histone H3 in area CA1 after contextual fear conditioning. As to conditions: injection of MK-801 1 h prior to or SL327 immediately after training.
Assay [3] concerns histone H4 (Lys5/Lys8/Lys12/Lys16). Nature of the assay: Acetylation of histone H4 in area CA1 after contextual fear conditioning. Conditions: injection of MK-801 1 h prior to or SL327 immediately after training.
Assay [4] concerns Schaffer-collateral synapses. Put plainly: Slice electrophysiology, basal synaptic transmission (baseline fEPSP, input/output, paired-pulse facilitation, tetanus depolarization). Type of assay: cell-based, Sprague-Dawley rats. As to conditions: sodium butyrate for 20 min vs vehicle.
The nature of a further assay: Passive avoidance task. Type of assay: in vivo, Sprague-Dawley rats. The protocol:
The effect of the exemplary histone deacetylase inhibitor sodium butyrate (NaB) on the exemplary hippocampus-dependent long-term memory paradigm of passive avoidance was determined. In the passive avoidance task, animals associate a dark chamber with an aversive stimulus. In the passive avoidance task, animals are placed into the lighted side of a 2-chamber shuttle box (Med Associates). An open doorway in the middle of the shuttle box leads to a dark side. Animals are allowed to move into the dark side of the chamber, upon which time the door is closed and animals are allowed to explore the dark side for 5 sec prior to receiving a brief electric shock (2 sec, 0.5 mA). Animals are given an additional 5 sec of exploration time prior to removal from the shuttle box. Latency to enter the dark side of the shuttle box is recorded for all experimental animals during the training day. Passive avoidance memory is assessed by measuring latency to enter the dark side of the shuttle box, minus the latency to enter the dark side on the training day. Passive avoidance memory was only tested once from each animal to eliminate the effect of extinction. NaB (1.2 g/kg) was administered 45 min prior to passive avoidance training.

The nature of assay [5]: Novel object recognition task. The class given is in vivo, Sprague-Dawley rats. The method, then: The effect of the exemplary histone deacetylase inhibitor sodium butyrate (NaB) on the exemplary hippocampus-dependent long-term memory paradigm of novel object recognition was determined. In the novel object task, an animal's ability to discriminate between a familiar and a novel object is tested. Novel object recognition training is performed over 4 consecutive days. During each day, animals are placed individually into a small holding cage prior to introduction to the training arena (44 cm^2). The first day consists of habituating animals to the training arena for 10 min. During the second and third days, the training arena has 8 small Duplo® Blocks (Lego®, 2 each: yellow, blue, red, green) placed 2 cm from the edge of the arena. During days 2 and 3, animals are simultaneously habituated to the Duplo blocks and tested for color and arena-position biases. On day 4, 2 distinct novel objects made from Duplo blocks (approx. 10×5×5 cm) are placed in opposite corners of the arena, 2 cm from the walls. Animals are allowed to explore the objects for 10 min. During each session in the arena, movement of the animal will be tracked by an automated video-based system (Limelight) and the arena and Duplo blocks are thoroughly rinsed with 10% EtOH to remove any scent cues left by subjects. During the final training session on day 4, exploration time of each object is tracked. […] Novel object recognition is assessed by calculating preference indices ([TimeNovel−TimeFamilar]) after exposure of animals to one familiar, and one novel object. Animals received an injection of either saline or NaB 45 min before the training session on day 4.

Assay [6] concerns survival motor neuron (SMN) protein. Conditions: SMA lymphoid cell lines; Chang et al. (2001); cited from earlier work.
Another assay relates to SMA-like mice. Conditions: Chang et al. (2001), cited from earlier work.
In assay [7] the test system is histone H3 (Lys14). Put plainly: Acetylation of histone H3, acute hippocampal slices, area CA1. Conditions: slices exposed to NaB for 40 min; data not shown.
The subject of assay [8] is histone H4 (Lys5/Lys8/Lys12/Lys16). Nature of the assay: Acetylation of histone H4, acute hippocampal slices, area CA1. As to conditions: slices exposed to NaB for 40 min; data not shown.
[9] abbreviates: NaB 1.2 g/kg 45 min prior to training.
[10] abbreviates: NaB 45 min before the training session on day 4, vs saline.
Where [11] appears, read: sodium butyrate 1.2 g/kg 1 h prior to 1-shock contextual fear conditioning, vs saline.
The mark [12] stands for this setting: sodium butyrate 1.2 g/kg 1 h prior to 1-shock contextual fear conditioning, vs saline, listed as NaB.

With `C[C@]12N[C@H](Cc3ccccc31)c1ccccc12` [MK-801], the “freezing behavior 24 h after contextual fear conditioning (contextual fear memory)” value in [1] (MK-801 300 μg/kg 1 h prior to training, vs saline) was “blocked; also recorded: less freezing behavior than animals injected with saline”. Besides, the “increase in P-ERK2 in area CA1 1 h after fear conditioning” value in the assay on ERK2 is “blocked the increase in P-ERK2; also recorded: inhibited the increase in P-ERK2”. In addition, the “increase in acetylation of histone H3 in area CA1 1 h after fear conditioning” value in the assay on histone H3 (Lys14) [2] is on record as “inhibited the increase in H3 acetylation; also recorded: No change in H3 acetylation”. The “histone H4 acetylation in area CA1 after fear conditioning” value in assay [3] is on record as “no effect on histone H4 acetylation”.
As for `CCCC(=O)[O-].[Na+]` [sodium butyrate], in [4], the input/output relationships result was “No significant differences” and the paired-pulse facilitation entry was “unaffected”. Moreover, in assay [4] (listed as NaB), the input/output relationships result is listed as “no significant affect on input/output relationships” and the paired-pulse facilitation entry is “no significant affect”. Further, in “Passive avoidance task” (setting [9]), the “passive avoidance memory (latency to enter dark side) 1 day after training” value is recorded as “did not affect long-term passive avoidance memory”, the “passive avoidance memory (latency to enter dark side) 7 days after training” value is “significant affects on passive avoidance memory” and the “passive avoidance memory (latency to enter dark side) 14 days after training” value is “significant affects on passive avoidance memory”. Besides, in “Passive avoidance task” (NaB 45 min prior to passive avoidance training, vs saline), the “long-term passive avoidance memory” value is given as “enhances long-term passive avoidance memory”. Further, in [5] (setting [10]), the “novel object recognition (preference index) 1 day after training” value is on record as “performed significantly better than animals that received saline”, the “novel object recognition (preference index) 7 days after training” value was “performed significantly better than animals that received saline” and the “novel object recognition (preference index) day 14” value was “A trend for enhanced performance”. Moreover, the “long-term novel object recognition memory” value in assay [5] (NaB 45 min prior to novel object training, vs saline) was “enhances long-term novel object recognition memory”. Further, in [6], the “amount of exon 7-containing SMN protein” value is listed as “effective at increasing the amount of exon 7-containing survival motor neuron (SMN) protein”. Besides, in the assay with SMA-like mice (SMA-like mice), the “expression of SMN protein in spinal cord motor neurons” value was “increased expression of SMN protein in spinal cord motor neurons” and the symptoms result was “improved symptoms”. Further, the “birth rate of severe types of SMA-like mice” value in the assay with SMA-like mice (heterozygous knock-out transgenic SMA-like mice bred) is “decreased the birth rate of severe types of SMA-like mice”. Further, in assay [1] (setting [11]), the “freezing behavior during training (FIG. 11A)” value is “unaffected”; the “freezing behavior during training (FIG. 11E, short-term memory study)” value is given as “unaffected”; the “freezing behavior on re-exposure to the training chamber 24 h after training (FIG. 11B)” value is “significantly more freezing behavior than animals injected with saline”. In assay [1] (setting [12]), the “freezing behavior during training (FIG. 11A)” value is listed as “no affect on freezing behavior observed during training”; the “freezing behavior during training (FIG. 11E, short-term memory study)” value is reported as “no significant differences were seen in freezing behavior”; the “freezing behavior on re-exposure 1 h after training, short-term memory (FIG. 11F)” value is “no effect on freezing behavior”. The “spontaneous freezing behavior on re-exposure 24 h after mock training, no shock (FIG. 11D)” value in [1] is “no affect on spontaneous freezing behavior”. For the same compound, the “spontaneous freezing behavior on re-exposure 24 h after mock training, no shock (FIG. 11D)” value in [1] (listed as NaB) is given as “no significant differences in the amount of freezing behavior”. For the same compound, the “spontaneous freezing behavior during mock training, no shock (FIG. 11C)” value in [1] (vs saline) was “unaffected”. For the same compound, the “spontaneous freezing behavior during mock training, no shock (FIG. 11C)” value in assay [1] (vs saline, listed as NaB) is “no acute effects on freezing behavior”. For the same compound, the “acetylation of histone H3” value in the assay on histone H3 (Lys14) [7] is listed as “elevated”. In addition, the “acetylation of histone H4” value in assay [8] was “elevated”.
